Experiment: Inhibition of leukotriene release in ICR mouse BMCMC […] after 6 hrs by ELISA
Format: functional

Compound | inhibition (INH) [%]
CC1=CC(=O)CC(C)(C)[C@]1(O)/C=C/[C@H](C)O[C@@H]1O[C@H](CO)[C@@H](O)[C@H](O)[C@H]1O | 36.7
CC1=CC(=O)CC(C)(C)[C@]1(O)/C=C/[C@@H](C)O[C@@H]1O[C@H](CO)[C@@H](O)[C@H](O)[C@H]1O | 22.9
CC1=CC(=O)CC(C)(C)[C@@]1(O)/C=C/[C@@H](C)O[C@@H]1O[C@H](CO)[C@@H](O)[C@H](O)[C@H]1O [6S,9R-ROSEOSIDE] | 67.4
CC1=CC(=O)CC(C)(C)[C@@]1(O)/C=C/[C@H](C)O[C@@H]1O[C@H](CO)[C@@H](O)[C@H](O)[C@H]1O [6S,9S-ROSEOSIDE] | 70.3

From ChEMBL document CHEMBL1139288, “A simple synthesis of four stereoisomers of roseoside and their inhibitory activity on leukotriene release from mice bone marrow-derived cultured mast cells” (2009)
